{"source": "patent US20240238263A1", "about": "“USE OF PYRIDONE DERIVATIVE CONTAINING HETEROATOM CYCLOBUTANE SUBSTITUENT” (GUANGZHOU JOYO PHARMATECH CO., LTD, priority 2021, published 2024)", "system": "dorsal skin full-thickness excisional wound in STZ-induced diabetic rats", "assay": "Dorsal skin full-thickness excisional wound model in STZ-induced diabetic rats, wound closure", "type": "in vivo, Wistar rats", "experimental": "In this study, 50 STZ-diabetic rats were used to simulate Type 1 diabetes, with an additional 8 normal rats serving as the control group (normal blank gel control group (without STZ)). The method for modeling the STZ-diabetic rat is as follows: Male Wistar rats were weighed and then intraperitoneally injected with Streptozotocin (STZ, freshly prepared, dissolved in 0.1 M citrate buffer (pH 4.5)) at a dosage of 80 mg/kg. STZ was intraperitoneally injected twice in total, with a 5-day interval between injections. Three days after the second STZ injection, rats with fasting blood glucose levels greater than 250 mg/dl were defined as diabetic model rats. Studies on skin wound healing could be conducted from 1 to 8 weeks after the successful establishment of the diabetic rat model. • 2.\nIn diabetic model rats, the dorsal skin was marked with a stamp, and full-thickness excision was performed to create a standardized wound area. The day of the full-thickness skin excision surgery was designated as Day 1 of the experiment. The specified surgical procedure was as follows: • 1) Prior to surgery, animals were anesthetized with 2-5% isoflurane. The back was shaved and prepared, and the surgical area was disinfected with iodophor, followed by de-iodination with 75% alcohol. • 2) All animals were marked on the skin of their backs using a stamp with a circular pattern. A circular full-thickness skin excision was performed along the midline of the rat's back, extending down to the fascial layer. […] The surgical site was essentially consistent for each animal; • 3) Post-surgery, every 8-12 hours, 8 mg/kg of bupivacaine (diluted to 0.25% with physiological saline) was injected subcutaneously at the wound site. All animals were closely monitored until they regained consciousness. Animals were monitored daily, and if symptoms of pain persisted, they would continue to receive pain medication. • 4. Drug administration:\nAll experimental groups were topically administered. Before administering the medication, wounds were rinsed with physiological saline and any residual moisture was absorbed with a sterile cotton swab. Then, the medication was applied. For the GeneTime group, the solution was evenly applied to the wound and surrounding skin, with the dressing changed twice a day. For the other groups, the gel samples were applied from the periphery toward the center, focusing first on the edges of the lesion before covering inward, with the dressing changed twice a day. Medication was applied immediately after the wound model was created, and each group was continuously administered for 18 days. For specific administration information, see Table 2. • 5. Efficacy assessment • 1) Blood glucose monitoring: Blood samples were obtained from all animals via tail vein sampling, and fasting blood glucose levels were measured on days 0/9/18 using a glucometer. • 2) Evaluation of wound closure:\nAfter anesthetizing the rats with isoflurane, a ruler was placed near the wound as a reference scale. Using a digital camera, photos of the wound on the rat's back were taken on days 1, 4, 8, 11, 14, and 18, maintaining a constant focus and pixel condition. The obtained images were processed by software to measure the wound area. • 6. Statistical analysis\nExperimental data were expressed as the mean±standard error of the mean (mean±S.E.M.). Statistical analyses were conducted using appropriate methods in software such as Graphpad Prism or SPSS. A p-value of less than 0.05 is considered to indicate a significant difference. • 7. Results • 1) Fasting blood glucose\nRemaining Open Wound Area %=Open Wound Area (O)/Initial Wound Area (I)*100%"}
{"smiles": "CC1(c2ccc(=O)n(-c3ccsc3)c2)COC1", "note": "[compound I]", "values": [{"measurement": "Remaining open wound area", "setting": "0.3% compound I gel, 50 mg topical twice daily, Day 1 (day of surgery)", "result": "100% ±"}, {"measurement": "Remaining open wound area", "setting": "0.3% compound I gel, 50 mg topical twice daily, Day 4", "result": "94.82% ±"}, {"measurement": "Remaining open wound area", "setting": "0.3% compound I gel, 50 mg topical twice daily, Day 8", "result": "54% ±"}, {"measurement": "Remaining open wound area", "setting": "0.3% compound I gel, 50 mg topical twice daily, Day 11", "result": "24.5% ±"}, {"measurement": "Remaining open wound area", "setting": "0.3% compound I gel, 50 mg topical twice daily, Day 14", "result": "7.75% ±"}, {"measurement": "Remaining open wound area", "setting": "0.3% compound I gel, 50 mg topical twice daily, Day 18", "result": "1.22% ±"}, {"measurement": "Remaining open wound area", "setting": "1% compound I gel, topical twice daily, Day 1 (day of surgery)", "result": "100% ±"}, {"measurement": "Remaining open wound area", "setting": "1% compound I gel, topical twice daily, Day 4", "result": "94.25% ±"}, {"measurement": "Remaining open wound area", "setting": "1% compound I gel, topical twice daily, Day 8", "result": "55.4% ±"}, {"measurement": "Remaining open wound area", "setting": "1% compound I gel, topical twice daily, Day 14", "result": "5.47% ±"}, {"measurement": "Remaining open wound area", "setting": "1% compound I gel, topical twice daily, Day 18", "result": "0.78% ±"}, {"measurement": "Change of remaining open wound area % vs model blank gel control group", "setting": "1% compound I gel, after 14 days of topical administration, no statistical difference", "result": "tended to decrease"}, {"measurement": "Change of remaining open wound area % vs model blank gel control group", "setting": "1% compound I gel, day 11 after administration, P<0.01", "result": "significantly reduced"}, {"measurement": "Remaining open wound area", "setting": "3% compound I gel, topical twice daily, Day 1 (day of surgery)", "result": "100% ±"}, {"measurement": "Remaining open wound area", "setting": "3% compound I gel, topical twice daily, Day 4", "result": "93.96% ±"}, {"measurement": "Remaining open wound area", "setting": "3% compound I gel, topical twice daily, Day 8", "result": "56.92% ±"}, {"measurement": "Remaining open wound area", "setting": "3% compound I gel, topical twice daily, Day 14", "result": "6% ±"}, {"measurement": "Remaining open wound area", "setting": "3% compound I gel, topical twice daily, Day 18", "result": "2.01% ±"}, {"measurement": "Change of remaining open wound area % vs model blank gel control group", "setting": "3% compound I gel, after 14 days of topical administration, no statistical difference", "result": "tended to decrease"}, {"measurement": "Change of remaining open wound area % vs model blank gel control group", "setting": "3% compound I gel, day 11 after administration, P<0.05", "result": "significantly reduced"}]}
